Source: patent US5436229A, “Bisulfite adducts of arginine aldehydes” (Eli Lilly and Company, priority 1994, dated 1995)
Non-standard residues stand in square brackets, D forms with d. Residues, ends and D or L forms follow the SMILES beside them. ξ: configuration not given here. dPip = O=C(O)[C@H]1CCCCN1; ξAze = O=C(O)C1CCN1

What was measured:
[1] = Index of Bioavailability (plasma TT AUC, oral vs i.v.); format: in vivo; conditions: rats, oral vs i.v. bolus
Description: Assays are done in duplicate and averaged.
Each sample population represents alternating sequential time points.

human thrombin = human thrombin (Homo sapiens, UniProt P00734); assay: Thrombin amidase inhibition (Kass), chromogenic substrate; format: biochemical
In short: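 Purified human thrombin (8 NIH units/ml solution) mixed with compound in 50% aqueous methanol and 0.03M Tris, 0.15M NaCl, pH 7.4; chromogenic substrate (0.25 mg/ml solution) added, p-nitroaniline release followed at 405 nm. Free thrombin read from a standard curve; Kass (L/mol) is the mean over a range of compound concentrations.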

human plasma [2] = assay: Human plasma anticoagulation, thrombin time (TT); format: biochemical
In short: (§1)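 Compounds added across a wide concentration range to human plasma; APTT, PT and TT clotting times measured on a coagulation instrument, bovine thrombin used for plasma assays. Concentration doubling clotting time estimated by linear extrapolation.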

Bovine trypsin = biological target: T1, Bovine trypsin (Bos taurus, UniProt P00760); assay: Serine protease inhibition (Kass), trypsin; format: biochemical
T1 construct: Bovine trypsin is purchased from Worthington Biochemicals; purchased Worthington Biochemicals, Freehold, N.J
T1 sequence (P00760 24-246): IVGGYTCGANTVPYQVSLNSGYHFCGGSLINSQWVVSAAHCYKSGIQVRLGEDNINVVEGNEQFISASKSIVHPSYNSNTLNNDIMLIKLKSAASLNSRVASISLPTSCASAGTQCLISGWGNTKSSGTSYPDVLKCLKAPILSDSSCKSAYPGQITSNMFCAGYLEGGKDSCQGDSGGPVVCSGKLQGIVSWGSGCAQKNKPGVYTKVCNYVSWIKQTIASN
In short: (§2)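 Chromogenic p-nitroanilide substrate assays run as for human thrombin; trypsin with N-Benzoyl-Phe-Val-Arg-p-nitroanilide, human factor Xa with N-Benzoyl-Ile-Glu-Gly-Arg-p-nitroanilide. Values are association constants (Kass).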

[3] = biological target: T2, tissue plasminogen activator (t-PA) (Homo sapiens, UniProt P00750); assay: Serine protease inhibition (Kass), t-PA; format: biochemical
T2 construct: purchased American Diagnostica, Greenwich, Conn

Human plasmin = biological target: T3, Human plasmin (Homo sapiens, UniProt P00747); assay: Serine protease inhibition (Kass), plasmin; format: biochemical
T3 construct: Human plasmin is purchased from Boehringer Mannheim; purchased Boehringer Mannheim, Indianapolis, Ind
In short: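 Chromogenic enzyme assays run as for human thrombin, giving association constants (Kass). Human plasmin used with H-D-Val-Leu-Lys-p-nitroanilide; t-PA (single-chain nt-PA or modified mt-PA6) with H-D-Ile-Pro-Arg-p-nitroanilide.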

human plasma [4] = assay: Human plasma anticoagulation, prothrombin time (PT); format: biochemical
In short: as §1

factor Xa = biological target: T4, factor Xa (Homo sapiens, UniProt P00742); assay: Serine protease inhibition (Kass), factor Xa; format: biochemical
T4 construct: Human factors X, Xa, IXa, XIa, and XIIa are purchased from Enzyme Research Laboratories; purchased Enzyme Research Laboratories, South Bend, Ind
In short: as §2

human plasma [5] = assay: Human plasma anticoagulation, activated partial thromboplastin time (APTT); format: biochemical
In short: as §1

T2 sequence (P00750 36-562): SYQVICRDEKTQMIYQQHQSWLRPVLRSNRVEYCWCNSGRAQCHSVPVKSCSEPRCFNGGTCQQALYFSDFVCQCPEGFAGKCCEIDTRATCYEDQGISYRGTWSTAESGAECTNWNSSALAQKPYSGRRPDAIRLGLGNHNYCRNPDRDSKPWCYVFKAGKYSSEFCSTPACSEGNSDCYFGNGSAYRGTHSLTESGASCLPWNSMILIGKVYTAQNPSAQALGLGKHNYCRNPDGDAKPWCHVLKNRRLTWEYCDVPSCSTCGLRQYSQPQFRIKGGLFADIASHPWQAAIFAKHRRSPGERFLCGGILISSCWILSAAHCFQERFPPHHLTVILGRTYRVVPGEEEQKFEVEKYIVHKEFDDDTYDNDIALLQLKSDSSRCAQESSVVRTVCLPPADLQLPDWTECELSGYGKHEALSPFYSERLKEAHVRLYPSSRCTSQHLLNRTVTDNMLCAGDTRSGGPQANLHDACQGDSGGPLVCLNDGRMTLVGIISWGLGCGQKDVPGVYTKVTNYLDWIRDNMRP
T4 sequence (P00742 235-488 limits assumed): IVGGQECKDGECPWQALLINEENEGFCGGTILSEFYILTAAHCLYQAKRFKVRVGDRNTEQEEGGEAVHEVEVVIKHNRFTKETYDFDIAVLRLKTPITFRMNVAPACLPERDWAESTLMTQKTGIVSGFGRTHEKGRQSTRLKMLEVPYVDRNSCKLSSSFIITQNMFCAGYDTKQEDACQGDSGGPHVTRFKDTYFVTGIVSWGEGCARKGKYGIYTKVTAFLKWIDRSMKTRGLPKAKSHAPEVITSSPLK
T4 sequence (P00742 41-179 partner limits assumed): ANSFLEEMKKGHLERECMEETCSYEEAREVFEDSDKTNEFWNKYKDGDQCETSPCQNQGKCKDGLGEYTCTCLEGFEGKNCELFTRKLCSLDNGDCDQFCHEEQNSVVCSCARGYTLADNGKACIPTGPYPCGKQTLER
T3 sequence (P00747 581-810 limits assumed): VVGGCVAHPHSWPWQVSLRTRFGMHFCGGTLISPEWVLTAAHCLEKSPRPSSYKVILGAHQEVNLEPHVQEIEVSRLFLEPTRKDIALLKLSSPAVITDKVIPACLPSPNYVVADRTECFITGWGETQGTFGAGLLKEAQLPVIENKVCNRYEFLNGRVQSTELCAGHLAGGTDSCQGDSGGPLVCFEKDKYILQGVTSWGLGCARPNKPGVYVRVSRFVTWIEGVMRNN
T3 sequence (P00747 97-580 partner limits assumed): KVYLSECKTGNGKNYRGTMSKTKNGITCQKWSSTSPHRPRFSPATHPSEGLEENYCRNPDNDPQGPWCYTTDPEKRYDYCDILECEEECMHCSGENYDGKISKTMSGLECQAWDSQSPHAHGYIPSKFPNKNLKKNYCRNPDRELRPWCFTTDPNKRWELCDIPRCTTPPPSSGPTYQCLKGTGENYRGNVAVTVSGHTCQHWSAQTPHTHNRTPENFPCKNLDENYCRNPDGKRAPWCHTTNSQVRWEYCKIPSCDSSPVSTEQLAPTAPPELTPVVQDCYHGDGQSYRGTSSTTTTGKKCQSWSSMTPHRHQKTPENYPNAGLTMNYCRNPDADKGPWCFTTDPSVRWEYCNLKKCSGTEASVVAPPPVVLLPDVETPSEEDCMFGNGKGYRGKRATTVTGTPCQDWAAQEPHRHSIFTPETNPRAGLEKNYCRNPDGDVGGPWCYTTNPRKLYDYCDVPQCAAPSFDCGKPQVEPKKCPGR

Compound	Percent Relative Activity (Index of Bioavailability) [1] [%]	Kass Human Thrombin (human thrombin) [L/mol × 10^6]	2 × Clotting time TT (human plasma [2]) [ng/mL]	Kass Trypsin (Bovine trypsin) [L/mol × 10^6]	Kass t-PA [3] [L/mol × 10^6]	Kass Plasmin (Human plasmin) [L/mol × 10^6]	2 × Clotting time PT (human plasma [4])	Kass Xa (factor Xa) [L/mol × 10^6]	2 × Clotting time APTT (human plasma [5])
Cl.Cl.N=C(N)NCCC[C@@H](C=O)NC(=O)[C@@H]1CCCN1C(=O)C1NCCCC2CCCCC21 (mixture of isomers) [Example 8, DL-cis-3-aza-bicyclo[5.4.0]undecanyl-2-carbonyl-L-prolinyl-L-arginine aldehyde dihydrochloride]	43	595							
D-Prolinyl-L-Prolinyl-L-Arginine Aldehyde Dihydrochloride [Example 2]	36	12							
Cl.Cl.N=C(N)NCCC[C@@H](C=O)NC(=O)[C@@H]1CCCN1C(=O)C1CNCCN1 (stereo partly drawn) [Example 9, D,L-Piperazin-2-yl-L-Prolinyl-L-Arginine Aldehyde Dihydrochloride]	19	121							
CNC(CC(=O)N1CCC[C@H]1C(=O)N[C@H](C=O)CCCNC(=N)N)c1ccccc1.Cl.Cl.O.O (stereo partly drawn) [Example 15, N-methyl-3-amino-3-phenylpropionyl-L-Prolinyl-L-Arginine Aldehyde Dihydrochloride Dihydrate]	28	70							
Cl.Cl.Cl.N=C(N)NCCC[C@@H](C=O)NC(=O)[C@@H]1CCCN1C(=O)C1CCCCC1N.O (stereo partly drawn) [Example 22, 2-aminocyclohexylcarbonyl-L-Pro-L-Arginine Aldehyde Trihydrochloride Monohydrate]	15	39							
CNCC(Cc1ccccc1)C(=O)N1CCC[C@H]1C(=O)N[C@H](C=O)CCCNC(=N)N.Cl.Cl.O (stereo partly drawn) [Example 17, N-Methyl-3-amino-2-benzylpropionyl-L-Pro-L-Arg Aldehyde Dihydrochloride Monohydrate]	8	12							
Cl.Cl.N=C(N)NCCC[C@@H](C=O)NC(=O)C1CCN1C(=O)[C@H]1CCCCN1 (stereo partly drawn) [Example 3, D-Homoprolinyl-L-Azetidinyl-L-Arginine Aldehyde Dihydrochloride] (H-[dPip]-[ξAze]-Arg-aldehyde)	32	45							
Cl.Cl.Cl.N=C(N)NCCC[C@@H](C=O)NC(=O)[C@@H]1CCCN1C(=O)[C@H]1C[C@@H](Oc2ccccc2)CN1.O (relative stereo) [Example 12, D-Cis-(4-phenoxy)Prolinyl-L-Prolinyl-L-Arginine Aldehyde Trihydrochloride Monohydrate]	16	25							
Cl.Cl.N=C(N)NCCC[C@@H](C=O)NC(=O)[C@@H]1CCCN1C(=O)C1NCCS1 (stereo partly drawn) [Example 10, D,L-Thiazolidinyl-2-carbonyl-L-prolinyl-L-arginine aldehyde dihydrochloride]	5	27							
CCCC(Cc1ccccc1)(NC(=O)OCC)C(=O)N1CCC[C@H]1C(=O)N[C@H](C=O)CCCNC(=N)N.Cl (stereo partly drawn) [Example 38, N-ethoxycarbonylphenylalanyl(αn-propyl)-L-prolinyl-L-arginine aldehyde hydrochloride]		38	98	7.3	< 0.001	0.074	2,200 ng/mL	0.077	2,700 ng/mL
Cl.Cl.N=C(N)NCCC[C@@H](C=O)NC(=O)[C@@H]1CCCN1C(=O)C1(Cc2ccccc2)CCN1 (some centres unmarked) [Example 26]		75	42	17	0.0028	0.17	1,100 ng/mL	0.12	1,400 ng/mL
CNC(CC(=O)N1CCC[C@H]1C(=O)N[C@H](C=O)CCCNC(=N)N)C1CCCCC1.CNC(CC(=O)N1CCC[C@H]1C(=O)N[C@H](C=O)CCCNC(=N)N)C1CCCCC1.Cl.Cl.Cl.Cl.O (stereo partly drawn) [Example 16, N-methyl-3-amino-3-cyclohexyl propionyl-L-Pro-L-Arg aldehyde dihydrochloride hemihydrate]	19	85							
Cl.N=C(N)NCCC[C@@H](C=O)NC(=O)[C@@H]1CCCN1C(=O)[C@@H](Cc1ccccc1)NC(=O)C1CCCCC1 [Example 71, N-(cylohexoyl)-D-phenylalanyl-L-Prolinyl-L-Arginine Aldehyde Hydrochloride]		20	63	5.9	0.26	0.24	1,800 ng/mL	0.064	1,300 ng/mL
Cl.N=C(N)NCCC[C@@H](C=O)NC(=O)[C@@H]1CCCN1C(=O)[C@@H](CC1CCCCC1)NC(=O)c1cc2ccccc2cn1 [Example 50, N-(isoquinolinyl-2-carbonyl)-D-cyclohexylalanyl-L-Prolinyl-L-Arginine Aldehyde Hydrochloride]		200	97	2.5	0.088	2.5	2,700 ng/mL	0.83	1,400 ng/mL
CCC[C@](Cc1ccccc1)(NC(=O)OCC)C(=O)N1CCC[C@H]1C(=O)N[C@H](C=O)CCCNC(=N)N.Cl [Example 37]		47	71	4.9	< 0.001	0.12	2,800 ng/mL	0.030	4,100 ng/mL
COCC(=O)N[C@H](Cc1ccccc1)C(=O)N1CCC[C@H]1C(=O)N[C@H](C=O)CCCNC(=N)N.Cl [Example 68, N-(methoxyacetyl)-D-phenylalanyl-L-Prolinyl-L-Arginine Aldehyde Hydrochloride]		33	38	57	0.30	3.8	1,200 ng/mL	0.29	440 ng/mL
CCNC(=O)N[C@H](Cc1ccccc1)C(=O)N1CCC[C@H]1C(=O)N[C@H](C=O)CCCNC(=N)N.Cl [Example 76, N-(ethylaminocarbonyl)-D-phenylalanyl-L-Prolinyl-L-Arginine Aldehyde Hydrochloride]		25	63	60	0.54	2.0	1,700 ng/mL	0.21	1,100 ng/mL
Cc1noc(C)c1S(=O)(=O)N[C@H](Cc1ccccc1)C(=O)N1CCC[C@H]1C(=O)N[C@H](C=O)CCCNC(=N)N.Cl [Example 60, N-(3,5-dimethyl-4-isoxazolylsulfonyl)-D-phenylalanyl-L-Prolinyl-L-Arginine Aldehyde Hydrochloride]		260	33	200	2.7	18	1,300 ng/mL	11	430 ng/mL
CCS(=O)(=O)N[C@@H](C(=O)N1CCC[C@H]1C(=O)N[C@H](C=O)CCCNC(=N)N)c1ccccc1.Cl [Example 64, N-(ethylsulfonyl)-D-phenylglycinyl-L-Prolinyl-L-Arginine Aldehyde Hydrochloride]		510	34	160	0.34	14	880 ng/mL	45	250 ng/mL
